According to PubChem BioAssay AID330 (DTP/NCI, 2004):
Several values for one entry are separate records, joined by “and”; a condition that tells them apart may be missing. Equal values may be shown once. Inconclusive results and toxic doses are left out.

System: P388 leukemia ip, CD2F1 mice, survival T/C
Assay: NCI In Vivo Anticancer Drug Screen. Data for tumor model P388 Leukemia (intraperitoneal) in CD2F1 (CDF1) mice
Details: endpoint: median survival time, higher = longer survival
Outline: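 Mice carrying the transplanted tumor received test compound or vehicle. Survival was recorded in each group, and the value is the treated-group measurement divided by that of the vehicle-treated control group.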

[1] = dose: 100.0 mg/kg/injection, schedule: Q01DX009 (ip), vehicle: saline
[2] = dose: 200.0 mg/kg/injection, schedule: Q01DX009 (ip), vehicle: saline
[3] = dose: 400.0 mg/kg/injection, schedule: Q01DX009 (ip), vehicle: saline
[4] = dose: 50.0 mg/kg/injection, schedule: Q01DX009 (ip), vehicle: saline with Tween-80
[5] = dose: 100.0 mg/kg/injection, schedule: Q01DX009 (ip), vehicle: saline with Tween-80
[6] = dose: 200.0 mg/kg/injection, schedule: Q01DX009 (ip), vehicle: saline with Tween-80
[7] = dose: 60.0 mg/kg/injection, schedule: Q01DX005 (ip), vehicle: Klucel (hydroxypropylcellulose) (HPC)
[8] = dose: 120.0 mg/kg/injection, schedule: Q01DX005 (ip), vehicle: Klucel (hydroxypropylcellulose) (HPC)
[9] = dose: 240.0 mg/kg/injection, schedule: Q01DX005 (ip), vehicle: Klucel (hydroxypropylcellulose) (HPC)
[10] = dose: 60.0 mg/kg/injection, schedule: Q01DX005 (ip), vehicle: saline with Tween-80
[11] = dose: 120.0 mg/kg/injection, schedule: Q01DX005 (ip), vehicle: saline with Tween-80
[12] = dose: 240.0 mg/kg/injection, schedule: Q01DX005 (ip), vehicle: saline with Tween-80
[13] = dose: 12.5 mg/kg/injection, schedule: Q01DX009 (ip), vehicle: saline with Tween-80
[14] = dose: 25.0 mg/kg/injection, schedule: Q01DX009 (ip), vehicle: saline with Tween-80

Compound: O=S(=O)(O)c1cccnc1
- T/C [1]: 104 % of control
- T/C (dose: 100.0 mg/kg/injection, schedule: Q04DX003 (ip), vehicle: saline): 100 % of control
- T/C [2]: 104 % of control
- T/C (dose: 200.0 mg/kg/injection, schedule: Q04DX003 (ip), vehicle: saline): 95 % of control
- T/C [3]: 95 % of control
- T/C (dose: 400.0 mg/kg/injection, schedule: Q04DX003 (ip), vehicle: saline): 100 % of control

Compound: CCSC(CC(C)=O)c1ccccc1 (stereo not given)
- T/C [4]: 108 % of control
- T/C [5]: 116 % of control
- T/C [6]: 105 % of control

Compound: Cc1nc(C(=O)O)c(C)c(=O)[nH]1
- T/C (dose: 0.78 mg/kg/injection, schedule: Q01DX009 (ip), vehicle: water): 96 % of control
- T/C (dose: 0.78 mg/kg/injection, schedule: Q04DX003 (ip), vehicle: water): 91 % of control
- T/C (dose: 1.56 mg/kg/injection, schedule: Q01DX009 (ip), vehicle: water): 96 % of control
- T/C (dose: 1.56 mg/kg/injection, schedule: Q04DX003 (ip), vehicle: water): 91 % of control
- T/C (dose: 3.13 mg/kg/injection, schedule: Q01DX009 (ip), vehicle: water): 112 % of control
- T/C (dose: 3.13 mg/kg/injection, schedule: Q04DX003 (ip), vehicle: water): 98 % of control
- T/C (dose: 6.25 mg/kg/injection, schedule: Q01DX009 (ip), vehicle: water): 119 % of control
- T/C (dose: 6.25 mg/kg/injection, schedule: Q04DX003 (ip), vehicle: water): 100 % of control
- T/C (dose: 12.5 mg/kg/injection, schedule: Q01DX009 (ip), vehicle: water): 114 % of control
- T/C (dose: 12.5 mg/kg/injection, schedule: Q04DX003 (ip), vehicle: water): 101 % of control

Compound: COc1ccc(C2=NCC2(Cl)Cl)cc1
- T/C (dose: 12.5 mg/kg/injection, schedule: Q01DX009 (ip), vehicle: other): 97 % of control
- T/C (dose: 25.0 mg/kg/injection, schedule: Q01DX009 (ip), vehicle: other): 95 % of control
- T/C (dose: 50.0 mg/kg/injection, schedule: Q01DX009 (ip), vehicle: other): 105 % of control
- T/C (dose: 100.0 mg/kg/injection, schedule: Q01DX009 (ip), vehicle: other): 96 % of control
- T/C (dose: 200.0 mg/kg/injection, schedule: Q01DX009 (ip), vehicle: other): 99 % of control

Compound: COc1cc2c(cc1OC)C13CC[N+]4(C)CC5=CCOC6CC(=O)N2C1C6C5CC34[O-] (stereo not given)
- T/C [7]: 99 % of control
- T/C [8]: 99 % of control
- T/C [9]: 111 % of control

Compound: COC(=O)C(=O)c1c(-c2ccc(O)c(OC)c2)[nH]c2[nH]n(-c3ccccc3)c(=O)c2c1=O
- T/C [10]: 100 % of control
- T/C [11]: 109 % of control
- T/C [12]: 88 % of control

Compound: c1ccc(CN2CC[N+](Cc3ccccc3)=C2C2=[N+](Cc3ccccc3)CCN2Cc2ccccc2)cc1
- T/C (dose: 12.5 mg/kg/injection, schedule: Q01DX009 (ip), vehicle: suspension in saline): 89 % of control
- T/C (dose: 25.0 mg/kg/injection, schedule: Q01DX009 (ip), vehicle: suspension in saline): 96 % of control
- T/C (dose: 50.0 mg/kg/injection, schedule: Q01DX009 (ip), vehicle: suspension in saline): 91 % of control

Compound: COc1cc2c(cc1C(C)=O)C=CC(C)(C)O2
- T/C (dose: 22.5 mg/kg/injection, schedule: Q01DX005 (ip), vehicle: Klucel (hydroxypropylcellulose) (HPC)): 100 % of control
- T/C (dose: 45.0 mg/kg/injection, schedule: Q01DX005 (ip), vehicle: Klucel (hydroxypropylcellulose) (HPC)): 100 % of control
- T/C (dose: 90.0 mg/kg/injection, schedule: Q01DX005 (ip), vehicle: Klucel (hydroxypropylcellulose) (HPC)): 94 % of control
- T/C (dose: 180.0 mg/kg/injection, schedule: Q01DX005 (ip), vehicle: Klucel (hydroxypropylcellulose) (HPC)): 98 % of control

Compound: NN1C(=O)CC(c2cccc(Cl)c2)C1=O (stereo not given)
- T/C [10]: 92 % of control
- T/C [11]: 92 % of control
- T/C [12]: 92 % of control

Compound: CCOC(=O)CNC1=NCCO1
- T/C (dose: 50.0 mg/kg/injection, schedule: Q01DX009 (ip), vehicle: saline): 109 % of control
- T/C [1]: 107 % of control
- T/C [2]: 102 % of control
- T/C [3]: 106 % of control

Compound: O=C(Nc1cc(Nc2ccc(NC(=O)c3ccccc3)c3c2C(=O)c2ccccc2C3=O)cc2c1C(=O)c1ccccc1C2=O)c1ccccc1
- T/C (dose: 50.0 mg/kg/injection, schedule: Q01DX005 (ip), vehicle: Klucel (hydroxypropylcellulose) (HPC)): 103 % of control
- T/C (dose: 100.0 mg/kg/injection, schedule: Q01DX005 (ip), vehicle: Klucel (hydroxypropylcellulose) (HPC)): 103 % of control
- T/C (dose: 200.0 mg/kg/injection, schedule: Q01DX005 (ip), vehicle: Klucel (hydroxypropylcellulose) (HPC)): 97 % of control

Compound: COC(=O)C1(C)OS(=O)(=O)c2ccccc21 (stereo not given)
- T/C [4]: 101 % of control
- T/C [5]: 101 % of control
- T/C [6]: 104 % of control

Compound: COC(=O)C1(c2ccccc2)N=NN=C1N(C)C (stereo not given)
- T/C (dose: 50.0 mg/kg/injection, schedule: Q01DX005 (ip), vehicle: saline with Tween-80): 98 % of control
- T/C (dose: 100.0 mg/kg/injection, schedule: Q01DX005 (ip), vehicle: saline with Tween-80): 106 % of control
- T/C (dose: 200.0 mg/kg/injection, schedule: Q01DX005 (ip), vehicle: saline with Tween-80): 110 % of control

Compound: CCC1=C[C@H]2CN(CCc3c([nH]c4ccccc34)[C@@](C(=O)OC)(c3cc4c(cc3OC)N(C)[C@H]3[C@@](O)(C(=O)NCCSC)[C@H](O)[C@]5(CC)C=CCN6CC[C@]43[C@@H]65)C2)C1
- T/C (dose: 0.5 mg/kg/injection, schedule: Q01DX001 (ip), vehicle: water): 117 % of control
- T/C (dose: 2.0 mg/kg/injection, schedule: Q01DX001 (ip), vehicle: water): 118 % of control
- T/C (dose: 16.0 mg/kg/injection, schedule: Q01DX001 (ip), vehicle: water): 154 % of control and 168 % of control
- T/C (dose: 32.0 mg/kg/injection, schedule: Q01DX001 (ip), vehicle: water): 191 % of control

Compound: CC(=O)OCC1OC(n2ccc3c(=O)[nH]c(=O)[nH]c32)C(OC(C)=O)C(OC(C)=O)C1OC(C)=O (stereo not given)
- T/C (dose: 100.0 mg/kg/injection, schedule: Q01DX001 (ip), vehicle: saline with Tween-80): 104 % of control
- T/C (dose: 200.0 mg/kg/injection, schedule: Q01DX001 (ip), vehicle: saline with Tween-80): 99 % of control
- T/C (dose: 400.0 mg/kg/injection, schedule: Q01DX001 (ip), vehicle: saline with Tween-80): 100 % of control

Compound: COc1cc(C=C2C(=O)C=CC2=O)ccc1O
- T/C (dose: 12.5 mg/kg/injection, schedule: Q04DX002 (ip), vehicle: saline): 92 % of control
- T/C (dose: 25.0 mg/kg/injection, schedule: Q04DX002 (ip), vehicle: saline): 96 % of control

Compound: CCOc1ccc(N=c2ccn3ccccc3c2)cc1
- T/C (dose: 6.25 mg/kg/injection, schedule: Q01DX009 (ip), vehicle: saline with Tween-80): 102 % of control
- T/C [13]: 110 % of control
- T/C [14]: 111 % of control

Compound: CCOC(=O)Nc1nc2c(SC#N)cc(C)cc2s1
- T/C (dose: 12.5 mg/kg/injection, schedule: Q01DX009 (ip), vehicle: Klucel (hydroxypropylcellulose) (HPC)): 103 % of control
- T/C (dose: 25.0 mg/kg/injection, schedule: Q01DX009 (ip), vehicle: Klucel (hydroxypropylcellulose) (HPC)): 96 % of control
- T/C (dose: 50.0 mg/kg/injection, schedule: Q01DX009 (ip), vehicle: Klucel (hydroxypropylcellulose) (HPC)): 88 % of control and 96 % of control

Compound: C=CCC(C(C)=O)C(=O)OC (stereo not given)
- T/C (dose: 50.0 mg/kg/injection, schedule: Q01DX005 (ip), vehicle: saline): 90 % of control
- T/C (dose: 100.0 mg/kg/injection, schedule: Q01DX005 (ip), vehicle: saline): 104 % of control
- T/C (dose: 200.0 mg/kg/injection, schedule: Q01DX005 (ip), vehicle: saline): 100 % of control

Compound: Cc1cc(Cl)ccc1N=C(N)N
- T/C [13]: 100 % of control
- T/C [14]: 101 % of control
- T/C [4]: 99 % of control and 107 % of control

Compound: O=[N+]([O-])c1ccccc1NN=NCCCl
- T/C (dose: 3.12 mg/kg/injection, schedule: Q01DX005 (ip), vehicle: Klucel (hydroxypropylcellulose) (HPC)): 112 % of control
- T/C (dose: 6.25 mg/kg/injection, schedule: Q01DX005 (ip), vehicle: Klucel (hydroxypropylcellulose) (HPC)): 120 % of control
- T/C (dose: 25.0 mg/kg/injection, schedule: Q01DX005 (ip), vehicle: Klucel (hydroxypropylcellulose) (HPC)): 120 % of control

Compound: O=C(NCc1nc2ccccc2[nH]1)C(F)(F)F
- T/C [7]: 103 % of control
- T/C [8]: 105 % of control
- T/C [9]: 104 % of control
